From US20240116996A1, “METHODS AND COMPOSITIONS FOR TREATING A CORONAVIRUS INFECTION” (Recovery Therapeutics, Inc., priority 2021, published 2024)
Like-named read-outs stand apart in the source and are kept apart here.

Legend:
[1] = test system: human coronavirus strain 229E (HCoV-229E); assay type: cell-based; conditions: FGF-2 1 ng/mL to 0.003 ng/mL, XTT
[2] = test system: SARS-CoV-2 (strain USA-WA1/2020); assay type: in vivo, Golden Syrian hamsters; conditions: lungs on D6
[3] = test system: HAP1 cells; conditions: increasing concentrations of FGF-2 up to 1 ng/mL, XTT

With “FGF-2: Recombinant human FGF-2 (SEQ ID NO. 1, 18 kDa low molecular weight isoform); Sigma-Aldrich F0291 in Example 1, PeproTech 100-18B in Example 2” the “EC50 (dose-dependent enhancement of cell survival)” value [1] was 0.08 ng/mL, the “reduction in viral load compared to vehicle-treated animals” value ([2]; 20 μg FGF-2 intravenous on D-1, D0, D1, D2) was 51% and the “reduction in viral load compared to vehicle-treated animals” value ([2]; 50 μg FGF-2 intravenous on D-1, D0, D1, D2) was 73%. The toxicity [3] was “without toxicity”.
